US20230233569A1 (Revolution Medicines, Inc., priority 2020, published 2023)

Legend:
Capan-1 (K-Ras G12V) = assay: CellTiter-Glo cell viability assay, 5-day treatment; type: cell-based; conditions: Homo sapiens, CAPAN-1, 120 h, 5-day treatment; read-out: Capan-1 Cell Viability assay data (K-Ras G12V, IC50)
Outline: (§1)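 Compounds were dispensed directly onto seeded cells and incubated for 5 days, then plates were equilibrated to room temperature for about 30 minutes before luminescence reading. Signals were expressed as percent of the mean DMSO control and fitted with a four-parameter logistic curve.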

NCI-H358 (K-Ras G12C) = assay: as above; type: cell-based; conditions: Homo sapiens, NCI-H358, 120 h, 5-day treatment; read-out: H358 Cell Viability assay data (K-Ras G12C, IC50)
Outline: as §1

KRAS G13C = KRAS G13C (Homo sapiens, UniProt P01116+P62937, G13C); assay: Disruption of BRAF RBD interaction with Ras (FRET / MOA assay, with Cyclophilin A); type: biochemical; conditions: read-out: KRAS G13C FRET data, IC50
Outline: (§2)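 Compound-driven ternary complex formation between nucleotide-loaded K-Ras and Cyclophilin A was measured as loss of BRAF RBD binding. Compounds (10-point 3-fold series, top 30 μM final) were incubated 3 h at 25 °C, then anti-His Eu-W1024 (10 nM) and anti-GST allophycocyanin (50 nM) added for 1.5 h. IC50 was taken from the TR-FRET ratio decrease versus DMSO.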

KRAS G12V = KRAS G12V (Homo sapiens, UniProt P01116+P62937, G12V); assay: as above; type: biochemical; conditions: KRAS G12V; read-out: KRAS G12V FRET data IC50
Outline: as §2

KRAS WT = KRAS WT (Homo sapiens, UniProt P01116+P62937); assay: as above; type: biochemical; conditions: KRAS WT; read-out: KRAS WT FRET data IC50
Outline: as §2

KRAS G12D = KRAS G12D (Homo sapiens, UniProt P01116+P62937, G12D); assay: as above; type: biochemical; conditions: read-out: KRAS G12D FRET data, IC50
Outline: as §2

NRAS G12C = NRAS G12C (Homo sapiens, UniProt P01111+P62937, G12C); assay: as above; type: biochemical; conditions: NRAS G12C; read-out: NRAS G12C FRET data IC50
KRAS G12C = KRAS G12C (Homo sapiens, UniProt P01116+P62937, G12C); assay: as above; type: biochemical; conditions: read-out: KRAS G12C FRET data, IC50
Outline: as §2

KRAS G13D = KRAS G13D (Homo sapiens, UniProt P01116+P62937, G13D); assay: as above; type: biochemical; conditions: KRAS G13D; read-out: KRAS G13D FRET data IC50
Outline: as §2

KRAS G12S = KRAS G12S (Homo sapiens, UniProt P01116+P62937, G12S); assay: as above; type: biochemical; conditions: read-out: KRAS G12S FRET data, IC50
Outline: as §2

NRAS WT = NRAS WT (Homo sapiens, UniProt P01111+P62937); assay: as above; type: biochemical; conditions: NRAS WT; read-out: NRAS WT FRET data IC50
Outline: (§3)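 TR-FRET in 25 mM HEPES pH 7.3, 100 mM NaCl, 5 mM MgCl2, 0.1% BSA: 25 μM Cyclophilin A, 12.5 nM His6-Ras-GMPPNP, 50 nM GST-BRAF RBD with compound (10-point 3-fold series from 30 μM), 3 h at 25° C. Anti-His Eu/anti-GST APC added, 1.5 h more; IC50 from decreased FRET ratio versus DMSO.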

NRAS Q61R = NRAS Q61R (Homo sapiens, UniProt P01111+P62937, Q61R); assay: as above; type: biochemical; conditions: NRAS Q61R; read-out: NRAS Q61R FRET data IC50
Outline: as §3

NRAS Q61K = NRAS Q61K (Homo sapiens, UniProt P01111+P62937, Q61K); assay: as above; type: biochemical; conditions: NRAS Q61K; read-out: NRAS Q61K FRET data IC50
Outline: as §3

KRAS Q61H = KRAS Q61H (Homo sapiens, UniProt P01116+P62937, Q61H); assay: as above; type: biochemical; conditions: KRAS Q61H; read-out: KRAS Q61H FRET data IC50
Outline: as §3

Chain of KRAS Q61H (P01116 1-169 isoform P01116-2 Q61H limits assumed): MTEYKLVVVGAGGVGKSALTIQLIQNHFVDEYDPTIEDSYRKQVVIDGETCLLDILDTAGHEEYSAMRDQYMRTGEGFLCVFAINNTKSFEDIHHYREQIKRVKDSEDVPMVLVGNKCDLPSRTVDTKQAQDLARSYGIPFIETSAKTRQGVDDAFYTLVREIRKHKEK
Chain of KRAS Q61H (P62937 whole entry): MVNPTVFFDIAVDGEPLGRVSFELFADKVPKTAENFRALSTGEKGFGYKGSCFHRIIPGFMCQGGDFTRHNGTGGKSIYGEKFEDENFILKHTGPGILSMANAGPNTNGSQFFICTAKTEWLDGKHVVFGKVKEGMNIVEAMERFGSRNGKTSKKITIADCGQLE
Chain of KRAS G13D (P01116 1-169 isoform P01116-2 G13D limits assumed): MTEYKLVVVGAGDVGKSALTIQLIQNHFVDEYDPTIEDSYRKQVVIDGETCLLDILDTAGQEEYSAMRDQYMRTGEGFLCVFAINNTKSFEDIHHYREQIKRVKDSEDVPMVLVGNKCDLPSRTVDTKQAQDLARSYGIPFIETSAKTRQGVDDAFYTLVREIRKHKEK
Chain of KRAS G13D (P62937 whole entry): as the sequence (P62937 whole entry) above
Chain of KRAS G12V (P01116 1-169 isoform P01116-2 G12V limits assumed): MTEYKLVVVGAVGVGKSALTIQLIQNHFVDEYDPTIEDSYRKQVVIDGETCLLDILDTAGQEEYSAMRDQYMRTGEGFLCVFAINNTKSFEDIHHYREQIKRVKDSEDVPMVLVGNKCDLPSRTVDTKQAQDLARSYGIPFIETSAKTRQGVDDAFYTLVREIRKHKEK
Chain of KRAS G12V (P62937 whole entry): as the sequence (P62937 whole entry) above
Chain of KRAS WT (P01116 1-169 isoform P01116-2 limits assumed): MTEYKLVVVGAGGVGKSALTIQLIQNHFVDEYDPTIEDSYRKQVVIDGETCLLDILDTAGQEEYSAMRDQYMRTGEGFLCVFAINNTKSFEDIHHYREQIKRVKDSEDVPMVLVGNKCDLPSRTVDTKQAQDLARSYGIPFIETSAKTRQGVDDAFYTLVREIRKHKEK
Chain of KRAS WT (P62937 whole entry): as the sequence (P62937 whole entry) above
Chain of KRAS G12D (P01116 1-169 isoform P01116-2 G12D limits assumed): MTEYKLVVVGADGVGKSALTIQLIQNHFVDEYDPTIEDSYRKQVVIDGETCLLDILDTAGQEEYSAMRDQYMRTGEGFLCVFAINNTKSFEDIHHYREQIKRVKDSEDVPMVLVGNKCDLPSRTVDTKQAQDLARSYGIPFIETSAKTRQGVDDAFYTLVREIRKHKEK
Chain of KRAS G12D (P62937 whole entry): as the sequence (P62937 whole entry) above
Chain of NRAS G12C (P01111 whole entry G12C): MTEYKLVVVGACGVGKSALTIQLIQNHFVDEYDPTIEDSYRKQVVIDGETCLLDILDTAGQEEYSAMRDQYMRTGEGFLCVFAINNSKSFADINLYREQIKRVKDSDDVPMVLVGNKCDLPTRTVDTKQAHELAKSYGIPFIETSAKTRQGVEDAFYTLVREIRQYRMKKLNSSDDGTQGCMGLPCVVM
Chain of NRAS G12C (P62937 whole entry): as the sequence (P62937 whole entry) above
Chain of KRAS G12C (P01116 1-169 isoform P01116-2 G12C): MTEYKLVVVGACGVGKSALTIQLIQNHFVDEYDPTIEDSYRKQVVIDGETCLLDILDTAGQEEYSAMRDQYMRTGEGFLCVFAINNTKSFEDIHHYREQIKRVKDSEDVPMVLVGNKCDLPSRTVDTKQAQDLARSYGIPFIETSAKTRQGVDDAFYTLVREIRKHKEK
Chain of KRAS G12C (P62937 whole entry): as the sequence (P62937 whole entry) above
Chain of KRAS G12S (P01116 1-169 isoform P01116-2 G12S limits assumed): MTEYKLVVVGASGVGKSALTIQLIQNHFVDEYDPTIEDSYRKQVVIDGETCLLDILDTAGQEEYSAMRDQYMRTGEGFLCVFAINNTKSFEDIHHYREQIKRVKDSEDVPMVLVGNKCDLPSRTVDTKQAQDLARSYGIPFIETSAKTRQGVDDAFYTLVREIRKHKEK
Chain of KRAS G12S (P62937 whole entry): as the sequence (P62937 whole entry) above
Chain of KRAS G13C (P01116 1-169 isoform P01116-2 G13C): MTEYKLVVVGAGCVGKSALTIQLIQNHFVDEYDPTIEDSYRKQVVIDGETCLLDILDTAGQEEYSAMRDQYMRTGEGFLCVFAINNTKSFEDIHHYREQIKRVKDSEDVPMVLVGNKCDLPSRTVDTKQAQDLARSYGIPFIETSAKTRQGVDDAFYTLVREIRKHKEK
Chain of KRAS G13C (P62937 whole entry): as the sequence (P62937 whole entry) above
Chain of NRAS WT (P01111 whole entry): as the sequence (P01111 whole entry G12C) above, with C12G counted along it
Chain of NRAS WT (P62937 whole entry): as the sequence (P62937 whole entry) above
Chain of NRAS Q61K (P01111 whole entry Q61K): as the sequence (P01111 whole entry G12C) above, with C12G, Q61K counted along it
Chain of NRAS Q61K (P62937 whole entry): as the sequence (P62937 whole entry) above
Chain of NRAS Q61R (P01111 whole entry Q61R): as the sequence (P01111 whole entry G12C) above, with C12G, Q61R counted along it
Chain of NRAS Q61R (P62937 whole entry): as the sequence (P62937 whole entry) above

| Structure (SMILES) | IC50 (NCI-H358 (K-Ras G12C)) [nM] | IC50 (KRAS G13C) [nM] | IC50 (KRAS G12V) [nM] | IC50 (KRAS WT) [nM] | IC50 (KRAS G12D) [nM] | IC50 (NRAS G12C) [nM] | IC50 (KRAS G12C) [nM] | IC50 (KRAS G13D) [nM] | IC50 (KRAS G12S) [nM] | IC50 (NRAS WT) [nM] | IC50 (NRAS Q61R) [nM] | IC50 (NRAS Q61K) [nM] | IC50 (KRAS Q61H) [nM] | IC50 (Capan-1 (K-Ras G12V)) [nM] |
| --- | --- | --- | --- | --- | --- | --- | --- | --- | --- | --- | --- | --- | --- | --- |
| CCn1c(-c2cccnc2[C@H](C)OC)c2c3cc(ccc31)-c1csc(n1)C[C@H](NC(=O)[C@H](C(C)C)N(C)C(=O)N1CC[C@@H](O)C1)C(=O)N1CCC[C@H](N1)C(=O)OCC(C)(C)C2 (atropisomer, axis not shown) [Example A376] | 10 to 100 | 100 to 1000 | 100 to 1000 | 100 to 1000 | 100 to 1000 | 10 to 100 | 10 to 100 | 100 to 1000 | 100 to 1000 | 100 to 1000 | 100 to 1000 | 10 to 100 | 10 to 100 | 10 to 100 |
| CCn1c(-c2cccnc2[C@H](C)OC)c2c3cc(ccc31)-c1csc(n1)C[C@H](NC(=O)[C@H](C(C)C)N(C)C(=O)N1CC(C#N)C1)C(=O)N1CCC[C@H](N1)C(=O)OCC(C)(C)C2 (atropisomer, axis not shown) [Example A382] | < 10 | 100 to 1000 | 100 to 1000 | 100 to 1000 | 100 to 1000 | 10 to 100 | 10 to 100 | 100 to 1000 | 100 to 1000 | 100 to 1000 | 100 to 1000 | 10 to 100 | 10 to 100 | 10 to 100 |
| CCn1c(-c2cccnc2[C@H](C)OC)c2c3cc(ccc31)-c1csc(n1)C[C@H](NC(=O)[C@H](C(C)C)N(C)C(=O)N1CCN(C(=O)C3(N(C)C)CC3)CC1)C(=O)N1CCC[C@H](N1)C(=O)OCC(C)(C)C2 (atropisomer, axis not shown) [Example A443] | < 10 | 100 to 1000 | 100 to 1000 | 10 to 100 | 100 to 1000 | 10 to 100 | 10 to 100 | 100 to 1000 | 100 to 1000 | 10 to 100 | 100 to 1000 | 10 to 100 | 10 to 100 | 10 to 100 |
| CCn1c(-c2cccnc2[C@H](C)OC)c2c3cc(ccc31)-c1csc(n1)C[C@H](NC(=O)[C@H](C(C)C)N(C)C(=O)N1CC([C@@H](C)N(C)C)C1)C(=O)N1CCC[C@H](N1)C(=O)OCC(C)(C)C2 (atropisomer, axis not shown) [Example A458] | 10 to 100 | 100 to 1000 | 100 to 1000 | 100 to 1000 | 100 to 1000 | 10 to 100 | 10 to 100 | 100 to 1000 | 100 to 1000 | 100 to 1000 | 100 to 1000 | 10 to 100 | 100 to 1000 | 10 to 100 |
| CCn1c(-c2cc(N3CCN(C)CC3)cnc2[C@H](C)OC)c2c3cc(ccc31)-c1csc(n1)C[C@H](NC(=O)[C@H](C(C)C)N(C)C(=O)N1C[C@@H](C)N(C)C[C@H]1C)C(=O)N1CCC[C@H](N1)C(=O)OCC(C)(C)C2 (atropisomer, axis not shown) [Example A476] | < 10 | 100 to 1000 | 100 to 1000 | 100 to 1000 | 100 to 1000 | 10 to 100 | 100 to 1000 | 100 to 1000 | 100 to 1000 | 100 to 1000 | 100 to 1000 | 100 to 1000 | 100 to 1000 | < 10 |

The next lines start with results.

| IC50 (NCI-H358 (K-Ras G12C)) [nM] | IC50 (KRAS G13C) [nM] | IC50 (KRAS G12V) [nM] | IC50 (KRAS WT) [nM] | IC50 (KRAS G12D) [nM] | IC50 (NRAS G12C) [nM] | IC50 (KRAS G12C) [nM] | IC50 (KRAS G13D) [nM] | IC50 (KRAS G12S) [nM] | IC50 (NRAS WT) [nM] | IC50 (NRAS Q61R) [nM] | IC50 (NRAS Q61K) [nM] | IC50 (KRAS Q61H) [nM] | Structure (SMILES) | IC50 (Capan-1 (K-Ras G12V)) [nM] |
| --- | --- | --- | --- | --- | --- | --- | --- | --- | --- | --- | --- | --- | --- | --- |
| < 10 | 100 to 1000 | 100 to 1000 | 100 to 1000 | 100 to 1000 | 10 to 100 | 10 to 100 | 100 to 1000 | 100 to 1000 | 10 to 100 | 10 to 100 | 10 to 100 | 10 to 100 | CCn1c(-c2cccnc2[C@H](C)OC)c2c3cc(ccc31)-c1csc(n1)C[C@H](NC(=O)[C@H](C(C)C)N(C)C(=O)N1CC(CO)C1)C(=O)N1CCC[C@H](N1)C(=O)OCC(C)(C)C2 (atropisomer, axis not shown) [Example A356] | 10 to 100 |
| < 10 | 100 to 1000 | 100 to 1000 | 10 to 100 | 100 to 1000 | 10 to 100 | 10 to 100 | 100 to 1000 | 100 to 1000 | 10 to 100 | 10 to 100 | 10 to 100 | 10 to 100 | CCn1c(-c2cccnc2[C@H](C)OC)c2c3cc(ccc31)-c1csc(n1)C[C@H](NC(=O)[C@H](C(C)C)N(C)C(=O)N1CCOCC1)C(=O)N1CCC[C@H](N1)C(=O)OCC(C)(C)C2 (atropisomer, axis not shown) [Example A372] | 10 to 100 |
| 10 to 100 | 100 to 1000 | 100 to 1000 | 10 to 100 | 100 to 1000 | 10 to 100 | 10 to 100 | 100 to 1000 | 10 to 100 | 10 to 100 | 10 to 100 | 10 to 100 | 10 to 100 | CCn1c(-c2cccnc2[C@H](C)OC)c2c3cc(ccc31)-c1csc(n1)C[C@H](NC(=O)[C@H](C(C)C)N(C)C(=O)N1CCCC1)C(=O)N1CCC[C@H](N1)C(=O)OCC(C)(C)C2 (atropisomer, axis not shown) [Example A400] | 10 to 100 |
| 10 to 100 | 100 to 1000 | 100 to 1000 | 100 to 1000 | 1000 to 10000 | 100 to 1000 | 100 to 1000 | 1000 to 10000 | 100 to 1000 | 100 to 1000 | 100 to 1000 | 10 to 100 | 100 to 1000 | CCn1c(-c2cccnc2[C@H](C)OC)c2c3cc(ccc31)-c1csc(n1)C[C@H](NC(=O)[C@H](C(C)C)N(C)C(=O)N1C[C@H]3OCCN(C)[C@H]3C1)C(=O)N1CCC[C@H](N1)C(=O)OCC(C)(C)C2 (atropisomer, axis not shown) [Example A451] | 10 to 100 |
| 10 to 100 | 100 to 1000 | 100 to 1000 | 100 to 1000 | 100 to 1000 | 10 to 100 | 10 to 100 | 100 to 1000 | 100 to 1000 | 100 to 1000 | 100 to 1000 | 10 to 100 | 10 to 100 | CCn1c(-c2cccnc2[C@H](C)OC)c2c3cc(ccc31)-c1csc(n1)C[C@H](NC(=O)[C@H](C(C)C)N(C)C(=O)N1CC3(CC(N(C)CCO)C3)C1)C(=O)N1CCC[C@H](N1)C(=O)OCC(C)(C)C2 (atropisomer, axis not shown) [Example A467] | 10 to 100 |
| 100 to 1000 | 100 to 1000 | 100 to 1000 | 100 to 1000 | 100 to 1000 | 10 to 100 | 10 to 100 | 100 to 1000 | 100 to 1000 | 10 to 100 | 100 to 1000 | 10 to 100 | 10 to 100 | CCn1c(-c2cccnc2[C@H](C)OC)c2c3cc(ccc31)-c1csc(n1)C[C@H](NC(=O)[C@H](C(C)C)N(C)C(=O)N1CC[C@H]3CN(C)C[C@H]31)C(=O)N1CCC[C@H](N1)C(=O)OCC(C)(C)C2 (atropisomer, axis not shown) [Example A471] | 100 to 1000 |
